# Literature values as cited in US20070281910A1, “Salicyl alcohol creatine phosphate prodrugs, compositions and uses thereof” (XenoPort, Inc., priority 2006, published 2007).
# Like-named read-outs stand apart in the source and are kept apart here.
# Legend:
# [1] = not given; remark: listed apart in the source
# [2] = animals fed a diet containing up to 1%
smiles,measurement,setting,value
CN(CC(=O)O)C(=N)N [creatine],overall increase of creatine phosphate levels,creatine supplementation over weeks,< 50%
same,duration of increase in tissue creatine phosphate levels,following oral creatine supplementation,> 14 days
same,increase of cerebral creatine phosphate,"healthy volunteers, oral creatine administration",about 10%
"CN(CC(=O)O)C(=N)NP(=O)(O)O [Creatine phosphate, creatine phosphate]",adverse side effects,"[1]; patients with cardiac diseases, intravenous injection up to 8 gm/day",without adverse side effects
CN(CC(=O)O)C(=N)N.O [creatine monohydrate],adverse side effects,"[1]; athletes and body builders, 2-3 gm/day",without adverse side effects
NC1=NCCN1CC(=O)O [cyclocreatine],adverse effects,[2],do not exhibit adverse effects
